The values that follow come from US5354748A, “Oral antibacterial compositions and method for the improvement of gastrointestinal absorption of penem or carbapenem antibiotics” (Suntory Limited, priority 1991, dated 1994).

Read-outs that look alike come from different tables or passages of the source.

The AUC is concentration integrated over time.

This data set can be described thus: Plasma concentration and urinary excretion of penem in dogs, capsules with glutathione (Example 7). The class given is in vivo. The conditions noted are these: dog; for AUC at 4 h / Cmax: plasma; for AUC at 4 h / Cmax / dose excreted at 24 h: po, 75 mg, oral capsule 75 mg (titer); for dose excreted at 24 h: urine, read-out: Excretion into urine.

With `C[C@@H](O)[C@H]1C(=O)N2C(C(=O)O)=C([C@H]3CCCO3)S[C@H]12` [sodium (1'R,2"R,5R,6S)-6-(1'-hydroxyethyl)-2-(2"-tetrahydrofuranyl)penem-3-carboxylate 2.5 hydrate], the “Increase of AUC relative to single administration” value (oral, glutathione 1/110 of the penemcarboxylate) stood at 1.2 times. Moreover, the AUC at 4 h reads like this: (penem:glutathione molar ratio 11:1) 25400 ng·h/mL; (penem:glutathione molar ratio 110:1) 21900 ng·h/mL. For the same compound, the Cmax amounted to 18000 ng/mL (penem:glutathione molar ratio 11:1, read-out: Highest concentration in plasma) and 14700 ng/mL (penem:glutathione molar ratio 110:1, read-out: Highest concentration in plasma). In addition, the dose excreted at 24 h runs as follows: (penem:glutathione molar ratio 11:1, up to 24 hours) 20.7%; (penem:glutathione molar ratio 110:1, up to 24 hours) 19.9%.
